The subject of one assay is VE-Cadherin (Cdh5) mRNA. Briefly: qRT-PCR of VE-cadherin mRNA in atorvastatin-treated zebrafish larvae. The assay is classed as in vivo, zebrafish (Danio rerio). The following applies: 1 μmol/L atorvastatin plus 500 nmol/L drug, n=3. Here is the method:
qRT-PCR was used to assess relative expression of selected genes (an average of two biological trial and three technical replicates and each trial is a pool of 60 larvae/treatment), using β-actin as the housekeeping gene control. 3 dpf, Tg(Flk:GFP; Gata:dsRed) zebrafish larvae were used for RNA extraction and cDNA synthesis. Atorvastatin and drug treatment were performed as previously mentioned in drug screening. Total RNA was extracted from these larvae (a pool of 50-60 larvae/treatment) using the RNeasy extraction kit (Qiagen, Mississauga, ON, CAN) and treated with DNase. The concentration of total RNA was determined spectrophotometrically at 260/280 nm using a NanoDrop™ spectrophotometer. First-strand cDNA was synthesized from 1 μg of total RNA using random hexamer primers.
In each case, forward primer is shown on the top and reverse primer on the bottom.
PCR was carried out in a 20 μl total volume and included 1×PCR buffer, 1.25 mM MgCl2, 0.25 mM dNTP, 1 U Taq polymerase, 0.5 μmol/L forward, and reverse primers and 1 μl cDNA.
For orientation: In qPCR the cycle at which signal appears reflects the starting amount.

Assay [1] concerns ICH induced by anti-β3 integrin serum in neonatal mice. As to the kind of experiment: Anti-β3 integrin mouse model of intracerebral hemorrhage. The assay is classed as in vivo, β3+/− mice (neonates). An excerpt: An anti-β3 integrin model of intracerebral hemorrhage (ICH) was generated according to our previously reported methods (Yougbare I, Lang S, Yang H et al. Maternal anti-platelet beta3 integrins impair angiogenesis and cause intracranial hemorrhage. J Clin Invest 2015; 125:1545-1556). Briefly, serum containing anti-β3 antibodies was generated by immunizing β3−/− female mice with gel-filtered wild type platelets via tail-vein injections twice a week. To detect anti-β3 antibody, blood was collected from the saphenous vein of immunized female mice and left to clot. […]
For the integrin ICH model, brains were taken out of the skull, cut at the mid-coronal position and assessed in a binary manner for whether or not there was any evidence of ICH. […]
Brains were scanned using 7T Burker MRI with 16-channel solenoid coils. […] Following the reconstruction of images and applying image distortion correction algorithms, all brains were processed and analyzed for total volume of brain and total volume of hemorrhage. Quantification was done using percentage of bleeding (normalized to each brain size). […] Lastly, quantification was done in a blinded fashion. All quantifications and 3D reconstructions were performed using a combination of Display and Amira processing software.

The subject of assay [2] is bbh mutant zebrafish (mutation in βPix), spontaneous ICH. Briefly: bbh (bubblehead) mutant genetic model of brain hemorrhage. It is filed as in vivo, zebrafish (Danio rerio). As to conditions: Danio rerio, read-out: EC50 to rescue brain hemorrhage, bbh Mutant Model. An excerpt: A specific zebrafish line with a gene mutation called bubblehead (bbh) was used. This line has spontaneous ICH. Bubblehead phenotype is caused by a mutation in βPix. Adult homozygous zebrafish were viable and fertile. […] More than 85% of zebrafish larvae display an ICH phenotype.

With `CO[C@H]1O[C@@H]2O[C@@]3(C)CC[C@H]4[C@H](C)CC[C@@H]([C@H]1C)[C@@]24OO3` [Artemether], the “VE-cadherin transcription level (qRT-PCR)” value in the assay with VE-Cadherin (Cdh5) mRNA was “upregulation”. Also, the ICH incidence in assay [1] (25 mg/kg i.p. with anti-β3 sera at P2, n=24, model control 77%) is listed as 47%. In addition, the “Total volume of ICH (MRI)” value in assay [1] (preliminary data, data not shown, vs controls) was “reduced”. The EC50 in assay [2] was 37.5 nM.

Usually EC50 stands for the midpoint of the concentration-response curve.

For the origin of these results see patent US10292991B2, “Small molecule therapeutic compounds that reduce the incidence of intracerebral hemorrhage and brain microhemorrhages” (St. Michaels Hospital, priority 2016, dated 2019).
